Measurements as given in PubChem BioAssay (NCI).
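In this assay, cells in 96-well plates receive the compound at five concentrations for 48 hours. Endpoints are linearly interpolated between the surrounding concentrations. TGI: concentration producing complete growth inhibition.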

Experiments:
Assay in all cases: NCI-60 cell line screen, 48 h
[1] = test system: DU-145 prostate
[2] = test system: M14 melanoma
[3] = test system: COLO 205 colon
[4] = test system: SNB-75 CNS
[5] = test system: SK-OV-3 ovarian
[6] = test system: ACHN renal
[7] = test system: SNB-19 CNS
[8] = test system: MALME-3M melanoma
[9] = test system: EKVX NSCLC
[10] = test system: SK-MEL-5 melanoma
[11] = test system: TK-10 renal
[12] = test system: OVCAR-4 ovarian
[13] = test system: HCT-15 colon
[14] = test system: SK-MEL-2 melanoma
[15] = test system: U251 CNS
[16] = test system: SF-268 CNS
[17] = test system: IGROV1 ovarian
[18] = test system: UO-31 renal
[19] = test system: NCI/ADR-RES ovarian
[20] = test system: UACC-62 melanoma
[21] = test system: SF-295 CNS
[22] = test system: 786-0 renal
[23] = test system: RPMI-8226 leukemia
[24] = test system: T-47D breast
[25] = test system: RXF 393 renal
[26] = test system: UACC-257 melanoma
[27] = test system: MDA-MB-435
[28] = test system: NCI-H226 lung
[29] = test system: HS 578T breast
[30] = test system: KM12 colon
[31] = test system: HT29 colon
[32] = test system: HOP-92 NSCLC
[33] = test system: MDA-N
[34] = test system: SW-620 colon
[35] = test system: PC-3 prostate
[36] = test system: OVCAR-8 ovarian
[37] = test system: K-562 leukemia
[38] = test system: SK-MEL-28 melanoma
[39] = test system: NCI-H522 lung
[40] = test system: OVCAR-5 ovarian
[41] = test system: SN12C renal
[42] = test system: HCT-116 colon
[43] = test system: A549 NSCLC
[44] = test system: BT-549 breast
[45] = test system: MDA-MB-231 breast
[46] = test system: HOP-62 NSCLC
[47] = test system: CAKI-1 renal
[48] = test system: NCI-H23 lung
[49] = test system: OVCAR-3 ovarian
[50] = test system: SR leukemia
[51] = test system: NCI-H460 lung
[52] = test system: LOX IMVI melanoma
[53] = test system: A498 renal
[54] = test system: MOLT-4 leukemia
[55] = test system: CCRF-CEM leukemia
[56] = test system: SF-539 CNS
[57] = test system: HL-60(TB) leukemia
[58] = test system: MCF7 breast

CC(=O)Nc1ccc(N=Nc2c(O)c(S(=O)(=O)O)cc3cc(S(=O)(=O)O)ccc23)cc1
TGI [1]: > 100 µM
TGI [2]: > 100 µM
TGI [3]: > 100 µM
TGI [4]: > 100 µM
TGI [5]: > 100 µM
TGI [6]: > 100 µM
TGI [7]: > 100 µM
TGI [8]: > 100 µM
TGI [9]: > 100 µM
TGI [10]: > 100 µM
TGI [11]: > 100 µM
TGI [12]: > 100 µM
TGI [13]: > 100 µM
TGI [14]: > 100 µM
TGI [15]: > 100 µM
TGI [16]: > 100 µM
TGI [17]: > 100 µM
TGI [18]: > 100 µM
TGI [19]: > 100 µM
TGI [20]: > 100 µM
TGI [21]: > 100 µM
TGI [22]: > 100 µM
TGI [23]: > 100 µM
TGI [24]: > 100 µM
TGI [25]: > 100 µM
TGI [26]: > 100 µM
TGI [27]: > 100 µM
TGI [28]: > 100 µM
TGI [29]: > 100 µM
TGI [30]: > 100 µM
TGI [31]: > 100 µM
TGI [32]: > 100 µM
TGI [33]: > 100 µM
TGI [34]: > 100 µM
TGI [35]: > 100 µM
TGI [36]: > 100 µM
TGI [37]: > 100 µM
TGI [38]: > 100 µM
TGI [39]: > 100 µM
TGI [40]: > 100 µM
TGI [41]: > 100 µM
TGI [42]: > 100 µM
TGI [43]: > 100 µM
TGI [44]: > 100 µM
TGI [45]: > 100 µM
TGI [46]: > 100 µM
TGI [47]: > 100 µM
TGI [48]: > 100 µM
TGI [49]: > 100 µM

COC(=O)c1c(O)ccc2c1c1c(n2Cc2cc(OC)cc(OC)c2)C(=O)c2ccccc2C1
TGI [1]: > 100 µM
TGI [2]: > 100 µM
TGI [3]: 26 µM
TGI [4]: 34.5 µM
TGI [5]: > 100 µM
TGI [7]: > 100 µM
TGI [8]: > 100 µM
TGI [50]: > 100 µM
TGI [10]: > 100 µM
TGI [11]: > 100 µM
TGI [12]: 44.8 µM
TGI [13]: > 100 µM
TGI [14]: > 100 µM
TGI [15]: > 100 µM
TGI [16]: > 100 µM
TGI [17]: > 100 µM
TGI [18]: > 100 µM
TGI [19]: 63.1 µM
TGI [20]: > 100 µM
TGI [51]: > 100 µM
TGI [21]: > 100 µM
TGI [22]: > 100 µM
TGI [23]: 36.2 µM
TGI [52]: > 100 µM
TGI [53]: > 100 µM
TGI [25]: 68.6 µM
TGI [26]: > 100 µM
TGI [27]: 61.7 µM
TGI [28]: > 100 µM
TGI [29]: > 100 µM
TGI [54]: > 100 µM
TGI [30]: > 100 µM
TGI [31]: 24.6 µM
TGI [55]: 67.5 µM
TGI [33]: > 100 µM
TGI [34]: > 100 µM
TGI [35]: 49.1 µM
TGI [36]: > 100 µM
TGI [37]: > 100 µM
TGI [56]: > 100 µM
TGI [38]: 60.9 µM
TGI [40]: 56.1 µM
TGI [41]: > 100 µM
TGI [57]: > 100 µM
TGI [42]: > 100 µM
TGI [58]: > 100 µM
TGI [43]: > 100 µM
TGI [44]: > 100 µM
TGI [45]: 91.6 µM
TGI [46]: > 100 µM
TGI [47]: 63.7 µM
TGI [48]: > 100 µM
TGI [49]: > 100 µM
